≈ marks a conversion by molar mass, not a printed value. Where two headings read alike, the source gives them in different places.
What was measured:
E. coli GC 2235 = test: MIC, broth microdilution; conditions: Escherichia coli
E. coli GC 2272 = test: MIC, broth microdilution; conditions: Escherichia coli
E. coli GC 4559 = test: MIC, broth microdilution; conditions: Escherichia coli
E. coli GC 4560 = test: MIC, broth microdilution; conditions: Escherichia coli
E. coli GC 6465 = test: MIC, broth microdilution; conditions: Escherichia coli
E. coli GC 1073 = test: MIC, broth microdilution; conditions: Escherichia coli
S. typhimurium GC 2172 = test: MIC, broth microdilution; conditions: Salmonella enterica, TYPHIMURIUM
S. aureus GC 1131 = test: MIC, broth microdilution; conditions: Staphylococcus aureus
S. aureus GC 6467 = test: MIC, broth microdilution; conditions: Staphylococcus aureus
S. aureus GC 1079 = test: MIC, broth microdilution; conditions: Staphylococcus aureus
S. aureus GC 4536 = test: MIC, broth microdilution; conditions: Staphylococcus aureus
S. epidermidis GC 4935 = test: MIC, broth microdilution; conditions: Staphylococcus epidermidis
E. faecalis GC 4555 = test: MIC, broth microdilution; conditions: Enterococcus faecalis
E. faecalis GC 2267 = test: MIC, broth microdilution; conditions: Enterococcus faecalis
E. faecalis GC 2242 = test: MIC, broth microdilution; conditions: Enterococcus faecalis
S. pneumoniae* GC 4465 = test: MIC, broth microdilution; conditions: Streptococcus pneumoniae
S. pneumoniae+ GC 4465 = test: MIC, broth microdilution; conditions: Streptococcus pneumoniae
S. agalactiae GC 4564 = test: MIC, broth microdilution; conditions: Streptococcus agalactiae
c. albicans GC 3066 = test: MIC, broth microdilution; conditions: for MIC: Candida albicans, GC3066, read-out: MINIMAL INHIBITORY CONCENTRATION MIC; for MINIMAL INHIBITORY CONCENTRATION MIC: pre-incubated in Water
Staph. aureus Smith = test: In vivo activity (oral, iv; ED50) against Staph. aureus Smith in mice
[1] = GC2235, read-out: MINIMAL INHIBITORY CONCENTRATION MIC, pre-incubated in Mouse Serum
[2] = GC2235, read-out: MINIMAL INHIBITORY CONCENTRATION MIC, pre-incubated in Water
[3] = GC2272, read-out: MINIMAL INHIBITORY CONCENTRATION MIC, pre-incubated in Mouse Serum
[4] = GC2272, read-out: MINIMAL INHIBITORY CONCENTRATION MIC, pre-incubated in Water
[5] = GC4559, read-out: MINIMAL INHIBITORY CONCENTRATION MIC, pre-incubated in Mouse Serum
[6] = GC4559, read-out: MINIMAL INHIBITORY CONCENTRATION MIC, pre-incubated in Water
[7] = GC4560, read-out: MINIMAL INHIBITORY CONCENTRATION MIC, pre-incubated in Mouse Serum
[8] = GC4560, read-out: MINIMAL INHIBITORY CONCENTRATION MIC, pre-incubated in Water
[9] = GC6465, read-out: MINIMAL INHIBITORY CONCENTRATION MIC, pre-incubated in Mouse Serum
[10] = GC6465, read-out: MINIMAL INHIBITORY CONCENTRATION MIC, pre-incubated in Water
[11] = GC1073, read-out: MINIMAL INHIBITORY CONCENTRATION MIC, pre-incubated in Mouse Serum
[12] = GC1073, read-out: MINIMAL INHIBITORY CONCENTRATION MIC, pre-incubated in Water
[13] = read-out: MINIMAL INHIBITORY CONCENTRATION MIC, pre-incubated in Mouse Serum
[14] = read-out: MINIMAL INHIBITORY CONCENTRATION MIC, pre-incubated in Water
[15] = GC1131, read-out: MINIMAL INHIBITORY CONCENTRATION MIC, pre-incubated in Mouse Serum
[16] = GC1131, read-out: MINIMAL INHIBITORY CONCENTRATION MIC, pre-incubated in Water
[17] = GC6467, read-out: MINIMAL INHIBITORY CONCENTRATION MIC, pre-incubated in Mouse Serum
[18] = GC6467, read-out: MINIMAL INHIBITORY CONCENTRATION MIC, pre-incubated in Water
[19] = GC1079, read-out: MINIMAL INHIBITORY CONCENTRATION MIC, pre-incubated in Mouse Serum
[20] = GC1079, read-out: MINIMAL INHIBITORY CONCENTRATION MIC, pre-incubated in Water
[21] = GC4536, read-out: MINIMAL INHIBITORY CONCENTRATION MIC, pre-incubated in Mouse Serum
[22] = GC4536, read-out: MINIMAL INHIBITORY CONCENTRATION MIC, pre-incubated in Water
[23] = GC4935, read-out: MINIMAL INHIBITORY CONCENTRATION MIC, pre-incubated in Mouse Serum
[24] = GC4935, read-out: MINIMAL INHIBITORY CONCENTRATION MIC, pre-incubated in Water
[25] = GC4555, read-out: MINIMAL INHIBITORY CONCENTRATION MIC, pre-incubated in Mouse Serum
[26] = GC4555, read-out: MINIMAL INHIBITORY CONCENTRATION MIC, pre-incubated in Water
[27] = GC2267, read-out: MINIMAL INHIBITORY CONCENTRATION MIC, pre-incubated in Mouse Serum
[28] = GC2267, read-out: MINIMAL INHIBITORY CONCENTRATION MIC, pre-incubated in Water
[29] = GC2242, read-out: MINIMAL INHIBITORY CONCENTRATION MIC, pre-incubated in Mouse Serum
[30] = GC2242, read-out: MINIMAL INHIBITORY CONCENTRATION MIC, pre-incubated in Water
[31] = GC4564, read-out: MINIMAL INHIBITORY CONCENTRATION MIC, pre-incubated in Mouse Serum
[32] = GC4564, read-out: MINIMAL INHIBITORY CONCENTRATION MIC, pre-incubated in Water
[33] = Staphylococcus aureus, in Mus musculus, po, read-out: ED50 Staph Smith SOD
[34] = iv, read-out: ED50 Staph Smith SIV

MIC (E. coli GC 2235; [1]) [µg/mL] | MIC (E. coli GC 2235; [2]) [µg/mL] | MIC (E. coli GC 2272; [3]) [µg/mL] | MIC (E. coli GC 2272; [4]) [µg/mL] | MIC (E. coli GC 4559; [5]) [µg/mL] | MIC (E. coli GC 4559; [6]) [µg/mL] | MIC (E. coli GC 4560; [7]) [µg/mL] | MIC (E. coli GC 4560; [8]) [µg/mL] | MIC (E. coli GC 6465; [9]) [µg/mL] | MIC (E. coli GC 6465; [10]) [µg/mL] | MIC (E. coli GC 1073; [11]) [µg/mL] | MIC (E. coli GC 1073; [12]) [µg/mL] | MIC (S. typhimurium GC 2172; [13]) [µg/mL] | MIC (S. typhimurium GC 2172; [14]) [µg/mL] | MIC (S. aureus GC 1131; [15]) [µg/mL] | MIC (S. aureus GC 1131; [16]) [µg/mL] | MIC (S. aureus GC 6467; [17]) [µg/mL] | MIC (S. aureus GC 6467; [18]) [µg/mL] | MIC (S. aureus GC 1079; [19]) [µg/mL] | MIC (S. aureus GC 1079; [20]) [µg/mL] | SMILES | also measured
1 (≈ 1.26 µM) | > 64 | 1 (≈ 1.26 µM) | > 64 | 2 (≈ 2.53 µM) | > 64 | 0.5 (≈ 0.631 µM) | > 64 | 8 (≈ 10.1 µM) | > 64 | 2 (≈ 2.53 µM) | > 64 | 8 (≈ 10.1 µM) | > 64 | 1 (≈ 1.26 µM) | 4 (≈ 5.05 µM) | 4 (≈ 5.05 µM) | > 64 | 2 (≈ 2.53 µM) | 32 (≈ 40.4 µM) | CCCCN(CC(=O)Nc1cc(N(C)C)c2c(c1O)C(=O)C1=C(O)[C@]3(O)C(=O)C(C(N)=O)=C(O)[C@@H](N(C)C)[C@@H]3C[C@@H]1C2)C(=O)OCOC(=O)c1cc(C)cc(C)c1 [Example 22, ({[(2-{[(5aR,6aS,7S,10aS)-9-(aminocarbonyl)-4,7-bis(dimethylamino)-1,8,10a,11-tetrahydroxy-10,12-dioxo-5,5a,6,6a,7,10,10a,12-octahydrotetracen-2-yl]amino}-2-oxoethyl)(butyl)amino]carbonyl}oxy)methyl 3,5-dimethylbenzoate] | MIC (S. aureus GC 4536; [21]): 1 µg/mL (≈ 1.26 µM); MIC (S. aureus GC 4536; [22]): 2 µg/mL (≈ 2.53 µM); MIC (S. epidermidis GC 4935; [23]): 2 µg/mL (≈ 2.53 µM); MIC (S. epidermidis GC 4935; [24]): 16 µg/mL (≈ 20.2 µM); MIC (E. faecalis GC 4555; [25]): 2 µg/mL (≈ 2.53 µM); MIC (E. faecalis GC 4555; [26]): 64 µg/mL (≈ 80.8 µM); MIC (E. faecalis GC 2267; [27]): 4 µg/mL (≈ 5.05 µM); MIC (E. faecalis GC 2267; [28]): 64 µg/mL (≈ 80.8 µM); MIC (E. faecalis GC 2242; [29]): 2 µg/mL (≈ 2.53 µM); MIC (E. faecalis GC 2242; [30]): 32 µg/mL (≈ 40.4 µM); MIC (S. pneumoniae* GC 4465; [13]): 0.5 µg/mL (≈ 0.631 µM); MIC (S. pneumoniae* GC 4465; [14]): 1 µg/mL (≈ 1.26 µM); MIC (S. pneumoniae+ GC 4465; [13]): 4 µg/mL (≈ 5.05 µM); MIC (S. pneumoniae+ GC 4465; [14]): 16 µg/mL (≈ 20.2 µM); MIC (S. agalactiae GC 4564; [31]): 1 µg/mL (≈ 1.26 µM); MIC (S. agalactiae GC 4564; [32]): 8 µg/mL (≈ 10.1 µM); MIC (c. albicans GC 3066): > 64 µg/mL; MINIMAL INHIBITORY CONCENTRATION MIC (c. albicans GC 3066): >64 UG/ML; ED50 (Staph. aureus Smith; [33]): 18.8 mg/kg; ED50 (Staph. aureus Smith; [34]): 0.43 mg/kg
1 (≈ 1.3 µM) | > 64 | 1 (≈ 1.3 µM) | > 64 | 2 (≈ 2.6 µM) | > 64 | 0.5 (≈ 0.649 µM) | 8 (≈ 10.4 µM) | 4 (≈ 5.2 µM) | > 64 | 1 (≈ 1.3 µM) | > 64 | 4 (≈ 5.2 µM) | > 64 | 1 (≈ 1.3 µM) | 2 (≈ 2.6 µM) | 4 (≈ 5.2 µM) | 8 (≈ 10.4 µM) | 2 (≈ 2.6 µM) | 4 (≈ 5.2 µM) | CCCCN(CC(=O)Nc1cc(N(C)C)c2c(c1O)C(=O)C1=C(O)[C@]3(O)C(=O)C(C(N)=O)=C(O)[C@@H](N(C)C)[C@@H]3C[C@@H]1C2)C(=O)OCOC(=O)c1cccs1 [Example 23, ({[(2-{[(5aR,6aS,7S,10aS)-9-(aminocarbonyl)-4,7-bis(dimethylamino)-1,8,10a,11-tetrahydroxy-10,12-dioxo-5,5a,6,6a,7,10,10a,12-octahydrotetracen-2-yl]amino}-2-oxoethyl)(butyl)amino]carbonyl}oxy)methyl thiophene-2-carboxylate] | MIC (S. aureus GC 4536; [21]): 1 µg/mL (≈ 1.3 µM); MIC (S. aureus GC 4536; [22]): 2 µg/mL (≈ 2.6 µM); MIC (S. epidermidis GC 4935; [23]): 2 µg/mL (≈ 2.6 µM); MIC (S. epidermidis GC 4935; [24]): 4 µg/mL (≈ 5.2 µM); MIC (E. faecalis GC 4555; [25]): 1 µg/mL (≈ 1.3 µM); MIC (E. faecalis GC 4555; [26]): 4 µg/mL (≈ 5.2 µM); MIC (E. faecalis GC 2267; [27]): 2 µg/mL (≈ 2.6 µM); MIC (E. faecalis GC 2267; [28]): 8 µg/mL (≈ 10.4 µM); MIC (E. faecalis GC 2242; [29]): 2 µg/mL (≈ 2.6 µM); MIC (E. faecalis GC 2242; [30]): 4 µg/mL (≈ 5.2 µM); MIC (S. pneumoniae* GC 4465; [13]): 0.12 µg/mL (≈ 0.156 µM); MIC (S. pneumoniae* GC 4465; [14]): 0.12 µg/mL (≈ 0.156 µM); MIC (S. pneumoniae+ GC 4465; [13]): 4 µg/mL (≈ 5.2 µM); MIC (S. pneumoniae+ GC 4465; [14]): 8 µg/mL (≈ 10.4 µM); MIC (S. agalactiae GC 4564; [31]): 0.25 µg/mL (≈ 0.325 µM); MIC (S. agalactiae GC 4564; [32]): 0.25 µg/mL (≈ 0.325 µM); MIC (c. albicans GC 3066): > 64 µg/mL; MINIMAL INHIBITORY CONCENTRATION MIC (c. albicans GC 3066): >64 UG/ML; ED50 (Staph. aureus Smith; [33]): 19 mg/kg; ED50 (Staph. aureus Smith; [34]): 0.47 mg/kg
